# PMC4010550, “Imidazol-1-ylethylindazole Voltage-Gated Sodium Channel Ligands Are Neuroprotective during Optic Neuritis in a Mouse Model of Multiple Sclerosis” (Journal of Medicinal Chemistry, 2014)
# Like-named read-outs stand apart in the source and are kept apart here. Marks after values point to notes of the source that are not given here.
# Experiments:
# [1] = test system: rat hippocampal slices; set-up: method as in PMID 19341281; conditions: reported previously; cited from earlier work
# [2] = test system: sodium channels; set-up: method as in PMID 19341281; conditions: reported previously / values reported in literature; read-out: [3H]sipatrigine binding, IC50; cited from earlier work
# [3] = biological target: hNav1.4 (Homo sapiens, UniProt P35499); assay: automated patch-clamp Nav isoform screening; format: cell-based; conditions: Nav1.4
# [4] = biological target: hNav1.2 (Homo sapiens, UniProt Q99250); assay: automated patch-clamp Nav isoform screening; format: cell-based; conditions: Nav1.2
# [5] = biological target: hNav1.3 (Homo sapiens, UniProt Q9NY46); assay: automated patch-clamp Nav isoform screening; format: cell-based; conditions: Nav1.3
# [6] = biological target: hNav1.6 (Homo sapiens, UniProt Q9UQD0); assay: automated patch-clamp Nav isoform screening; format: cell-based; conditions: Nav1.6
# [7] = biological target: hNav1.8/β3 (Homo sapiens, UniProt Q9Y5Y9); assay: automated patch-clamp Nav isoform screening; format: cell-based; conditions: Nav1.8
# [8] = biological target: hNav1.1 (Homo sapiens, UniProt P35498); assay: automated patch-clamp Nav isoform screening; format: cell-based; conditions: Nav1.1
# [9] = biological target: hNav1.5 (Homo sapiens, UniProt Q14524); assay: automated patch-clamp Nav isoform screening; format: cell-based; conditions: Nav1.5
# [10] = biological target: hNav1.7 (Homo sapiens, UniProt Q15858); assay: automated patch-clamp Nav isoform screening; format: cell-based; conditions: Nav1.7
# [11] = test system: T-cell proliferation to oxazolone in lymphnodes; assay: contact hypersensitivity model / in vivo local lymph node assay (T-cell immunosuppressive activity); conditions: mouse, 5–50 mg/kg i.p. day −1 to day 2, oxazolone sensitization day 0, read day 3
# [12] = test system: rat hippocampal slices; assay: in vitro neuroprotection assay, hippocampal slices under oxygen-glucose deprivation, ATP levels; format: cell-based; conditions: for Emax at 50 µM: Rattus norvegicus
# [13] = normalized to the effect of TTX
# hNav1.6, sequence (Q9UQD0 whole entry, canonical isoform): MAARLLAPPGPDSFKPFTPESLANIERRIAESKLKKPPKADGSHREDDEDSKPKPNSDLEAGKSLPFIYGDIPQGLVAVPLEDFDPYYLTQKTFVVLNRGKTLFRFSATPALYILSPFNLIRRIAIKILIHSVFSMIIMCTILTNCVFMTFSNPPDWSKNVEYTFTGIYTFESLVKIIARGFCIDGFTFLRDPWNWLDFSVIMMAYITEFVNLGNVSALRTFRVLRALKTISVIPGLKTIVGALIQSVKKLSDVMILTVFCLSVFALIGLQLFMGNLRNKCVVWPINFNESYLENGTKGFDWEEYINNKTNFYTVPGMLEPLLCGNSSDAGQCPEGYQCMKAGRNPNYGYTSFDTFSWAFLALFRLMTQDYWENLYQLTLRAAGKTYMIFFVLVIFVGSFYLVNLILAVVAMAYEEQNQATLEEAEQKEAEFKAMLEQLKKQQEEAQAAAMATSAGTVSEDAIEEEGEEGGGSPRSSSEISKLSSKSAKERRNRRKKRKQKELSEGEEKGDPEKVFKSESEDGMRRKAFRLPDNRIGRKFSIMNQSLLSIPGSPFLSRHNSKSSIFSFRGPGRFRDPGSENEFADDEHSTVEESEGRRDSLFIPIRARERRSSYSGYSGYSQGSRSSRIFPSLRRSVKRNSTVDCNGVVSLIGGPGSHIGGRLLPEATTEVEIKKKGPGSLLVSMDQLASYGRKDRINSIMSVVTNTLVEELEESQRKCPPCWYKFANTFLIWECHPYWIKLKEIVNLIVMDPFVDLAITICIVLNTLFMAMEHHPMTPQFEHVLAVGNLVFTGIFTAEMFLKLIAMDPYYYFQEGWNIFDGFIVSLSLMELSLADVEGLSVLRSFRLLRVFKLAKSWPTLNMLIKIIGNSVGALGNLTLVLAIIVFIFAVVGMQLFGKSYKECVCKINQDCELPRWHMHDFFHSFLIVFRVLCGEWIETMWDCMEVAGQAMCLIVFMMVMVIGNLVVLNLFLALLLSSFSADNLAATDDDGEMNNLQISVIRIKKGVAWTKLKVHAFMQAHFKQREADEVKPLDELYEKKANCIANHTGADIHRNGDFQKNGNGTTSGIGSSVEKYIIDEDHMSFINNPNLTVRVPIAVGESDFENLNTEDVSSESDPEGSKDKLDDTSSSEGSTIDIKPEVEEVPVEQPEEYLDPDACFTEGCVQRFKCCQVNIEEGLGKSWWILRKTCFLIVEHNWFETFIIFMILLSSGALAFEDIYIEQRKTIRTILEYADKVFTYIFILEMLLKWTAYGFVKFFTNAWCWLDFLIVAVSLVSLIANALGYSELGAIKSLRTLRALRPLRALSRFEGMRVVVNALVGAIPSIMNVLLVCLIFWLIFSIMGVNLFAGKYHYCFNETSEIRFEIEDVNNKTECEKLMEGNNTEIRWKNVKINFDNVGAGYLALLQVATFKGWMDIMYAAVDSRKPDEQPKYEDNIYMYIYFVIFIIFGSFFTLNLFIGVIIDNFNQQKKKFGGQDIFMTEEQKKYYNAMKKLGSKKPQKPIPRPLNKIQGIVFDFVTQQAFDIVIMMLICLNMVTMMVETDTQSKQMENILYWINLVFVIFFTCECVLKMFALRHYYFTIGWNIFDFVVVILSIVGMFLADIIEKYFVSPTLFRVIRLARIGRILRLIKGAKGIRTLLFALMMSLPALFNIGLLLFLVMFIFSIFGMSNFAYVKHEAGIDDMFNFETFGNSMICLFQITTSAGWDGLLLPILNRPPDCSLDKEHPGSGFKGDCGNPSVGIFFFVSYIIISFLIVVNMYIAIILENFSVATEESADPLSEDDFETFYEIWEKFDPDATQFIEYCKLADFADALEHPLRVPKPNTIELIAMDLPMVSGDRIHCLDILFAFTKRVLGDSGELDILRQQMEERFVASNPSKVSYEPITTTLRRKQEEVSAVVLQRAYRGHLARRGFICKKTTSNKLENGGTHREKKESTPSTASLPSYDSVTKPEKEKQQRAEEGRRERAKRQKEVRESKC
# hNav1.4, sequence (P35499 whole entry, canonical isoform): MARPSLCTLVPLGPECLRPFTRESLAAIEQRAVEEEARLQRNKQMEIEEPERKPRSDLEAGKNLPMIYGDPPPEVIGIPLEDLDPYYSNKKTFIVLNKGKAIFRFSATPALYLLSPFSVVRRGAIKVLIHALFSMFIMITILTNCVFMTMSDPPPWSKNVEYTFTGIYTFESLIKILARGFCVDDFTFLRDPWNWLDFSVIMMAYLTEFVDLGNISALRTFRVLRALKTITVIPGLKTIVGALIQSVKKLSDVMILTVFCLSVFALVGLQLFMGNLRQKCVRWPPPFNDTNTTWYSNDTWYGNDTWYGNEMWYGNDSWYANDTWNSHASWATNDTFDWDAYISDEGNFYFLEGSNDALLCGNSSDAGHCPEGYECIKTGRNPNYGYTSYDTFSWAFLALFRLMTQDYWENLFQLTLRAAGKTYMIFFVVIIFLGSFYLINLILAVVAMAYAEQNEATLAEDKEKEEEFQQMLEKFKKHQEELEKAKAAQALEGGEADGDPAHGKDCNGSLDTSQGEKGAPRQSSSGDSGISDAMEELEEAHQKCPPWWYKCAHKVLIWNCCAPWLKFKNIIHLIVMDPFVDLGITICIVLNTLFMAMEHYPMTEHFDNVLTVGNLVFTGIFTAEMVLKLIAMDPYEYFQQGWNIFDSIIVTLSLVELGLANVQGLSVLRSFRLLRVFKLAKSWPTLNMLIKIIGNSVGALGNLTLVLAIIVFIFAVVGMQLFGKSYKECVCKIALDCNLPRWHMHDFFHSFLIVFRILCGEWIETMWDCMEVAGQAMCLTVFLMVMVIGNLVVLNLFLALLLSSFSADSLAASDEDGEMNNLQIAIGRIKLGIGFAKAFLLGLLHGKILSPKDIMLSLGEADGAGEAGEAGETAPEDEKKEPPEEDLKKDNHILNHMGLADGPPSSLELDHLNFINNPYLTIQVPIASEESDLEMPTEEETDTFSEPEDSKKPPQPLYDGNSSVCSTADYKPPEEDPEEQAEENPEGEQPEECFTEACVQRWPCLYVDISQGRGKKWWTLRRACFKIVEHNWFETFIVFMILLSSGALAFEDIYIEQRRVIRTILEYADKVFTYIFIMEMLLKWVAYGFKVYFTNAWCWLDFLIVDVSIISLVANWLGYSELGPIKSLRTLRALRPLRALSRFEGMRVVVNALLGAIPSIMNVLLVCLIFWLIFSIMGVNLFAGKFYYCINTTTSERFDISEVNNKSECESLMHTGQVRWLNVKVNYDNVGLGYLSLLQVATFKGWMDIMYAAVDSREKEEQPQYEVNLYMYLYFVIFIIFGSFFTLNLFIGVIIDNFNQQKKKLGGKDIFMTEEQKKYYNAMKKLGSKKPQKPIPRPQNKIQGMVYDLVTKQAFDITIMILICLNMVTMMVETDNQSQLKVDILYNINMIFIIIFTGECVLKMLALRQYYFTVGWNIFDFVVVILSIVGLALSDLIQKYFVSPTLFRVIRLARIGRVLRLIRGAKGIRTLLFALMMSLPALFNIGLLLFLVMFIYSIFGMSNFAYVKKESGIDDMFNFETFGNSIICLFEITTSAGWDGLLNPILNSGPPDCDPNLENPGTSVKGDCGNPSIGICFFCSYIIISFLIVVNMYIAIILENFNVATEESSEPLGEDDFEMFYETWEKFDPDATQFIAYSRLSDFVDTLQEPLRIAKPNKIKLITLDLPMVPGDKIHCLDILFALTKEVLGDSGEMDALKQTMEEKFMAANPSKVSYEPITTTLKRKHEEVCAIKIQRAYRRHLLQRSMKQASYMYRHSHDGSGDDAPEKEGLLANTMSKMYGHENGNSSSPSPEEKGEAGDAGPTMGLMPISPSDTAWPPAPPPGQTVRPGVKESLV
structure (smiles),measurement,setting,value
CC(C)(C)OC(=O)NCc1noc(-c2nn(Cc3ccccc3)c3ccccc23)n1 [compound 14],neuroprotection at 50 μM,[1],19 ^e %
same,IC50,[2],8.3 µM
O=C(NCc1noc(-c2c3ccccc3nn2CCn2ccnc2)n1)c1cccc(OC(F)(F)F)c1 [compound 51],10 Hz block (b) n (slope of the fit),[3],1.34 ± 0.13
same,inactivated-state block (c) n (slope of the fit),[3],1.75 ± 0.12
same,tonic block (a) n (slope of the fit),[3],1.23 ± 0.18
same,10 Hz block (b) n (slope of the fit),[4],0.63 ± 0.14
same,inactivated-state block (c) n (slope of the fit),[4],0.6 ± 0.12
same,tonic block (a) n (slope of the fit),[4],0.48 ± 0.14
same,10 Hz block (b) n (slope of the fit),[5],0.35 ± 0.19
same,inactivated-state block (c) n (slope of the fit),[5],0.96 ± 0.19
same,10 Hz block (b) n (slope of the fit),[6],0.42 ± 0.19
same,inactivated-state block (c) n (slope of the fit),[6],1.17 ± 0.18
same,10 Hz block (b) n (slope of the fit),[7],2.62 ± 1.05
same,inactivated-state block (c) n (slope of the fit),[7],2.75 ± 0.66
same,tonic block (a) n (slope of the fit),[7],2.14 ± 0.51
same,10 Hz block (b) n (slope of the fit),[8],1.32 ± 0.16
same,inactivated-state block (c) n (slope of the fit),[8],2.09 ± 0.32
same,tonic block (a) n (slope of the fit),[8],1.09 ± 0.24
same,10 Hz block (b) n (slope of the fit),[9],0.37 ± 0.13
same,inactivated-state block (c) n (slope of the fit),[9],0.49 ± 0.15
same,tonic block (a) n (slope of the fit),[9],0.76 ± 0.23
same,10 Hz block (b) n (slope of the fit),[10],2.63 ± 0.33
same,inactivated-state block (c) n (slope of the fit),[10],2.5 ± 0.1
same,tonic block (a) n (slope of the fit),[10],2.59 ± 0.41
NCc1noc(-c2c3ccccc3nn2Cc2ccccc2)n1 [compound 25],IC50,[2],7 ± 2.8 µM
"O=C(NCc1noc(-c2nn(CCn3ccnc3)c3ccccc23)n1)c1ccccc1 [compound 6, N-[[5-[1-(2-Imidazol-1-ylethyl)indazol-3-yl]-1,2,4-oxadiazol-3-yl]methyl]benzamide]",10 Hz block (b) n (slope of the fit),[3],1.21 ± 0.36
same,inactivated-state block (c) n (slope of the fit),[3],1.43 ± 0.27
same,10 Hz block (b) n (slope of the fit),[4],1.82 ± 0.73
same,inactivated-state block (c) n (slope of the fit),[4],1.48 ± 0.38
same,tonic block (a) n (slope of the fit),[4],1.12 ± 0.51
same,inactivated-state block (c) n (slope of the fit),[5],0.78 ± 0.15
same,"T-cell immunosuppressive activity (inhibitory effect of sensitization; lymph node cell numbers, per cell proliferative response)",[11],no evidence suggestive of any inhibitory effect of sensitization
same,inactivated-state block (c) n (slope of the fit),[6],2.45 ± 2.59
same,inactivated-state block (c) n (slope of the fit),[7],1.42 ± 0.1
same,Emax at 50 µM,[12]; [13],46%
same,inactivated-state block (c) n (slope of the fit),[8],1.71 ± 0.73
same,10 Hz block (b) n (slope of the fit),[9],1.16 ± 0.54
same,inactivated-state block (c) n (slope of the fit),[9],0.99 ± 0.22
same,inactivated-state block (c) n (slope of the fit),[10],2.24 ± 0.17
same,tonic block (a) n (slope of the fit),[10],2.09 ± 1.73
NCc1noc(-c2nn(Cc3ccccc3)c3ccccc23)n1 [compound 24],IC50,[2],3.3 ± 0.6 µM
"Nc1nnc(-c2cccc(Cl)c2Cl)c(N)n1 [lamotrigine, reference compound]",neuroprotection,"[12]; tested at 30 μM, normalized to the effect of TTX",33 ^b %
same,IC50,[2],1.8 ± 0.2 µM
"CN1CCN(c2ncc(-c3cc(Cl)cc(Cl)c3Cl)c(N)n2)CC1 [sipatrigine, reference compound]",neuroprotection,[12]; tested at 3 μM,93 ^d %
same,IC50,[2],0.04 ± 0.001 µM
CC(C)(C)OC(=O)NCc1noc(-c2c3ccccc3nn2Cc2ccccc2)n1 [compound 15],neuroprotection at 50 μM,[1],25 ^e %
same,IC50,[2],5.5 µM
COc1cccc(C(=O)NCc2noc(-c3nn(CCn4ccnc4)c4ccccc34)n2)c1OC [compound 41],Emax at 50 µM,[12]; [13],71%
"NC1=N[C@H](O)[C@H]2[C@H]3O[C@]4(O)O[C@@H]([C@@H](O)[C@@]2(N1)[C@@H]4O)[C@]3(O)CO [tetrodotoxin, reference compound]",neuroprotection,[12],100 ^c %
O=C(NCc1noc(-c2c3ccccc3nn2CCn2ccnc2)n1)c1ccccc1 [compound 34],Emax at 50 µM,[12]; [13],41 ± 9.4%
